From patent publication US6919188B1, “Pseudomycin production by Pseudomonas syringae” (Eli Lilly and Company, priority 1999, dated 2005)
Entries after “also recorded” stand apart in the source; their conditions may differ. Starred links: 1 amine or outer side, 2 acyl side, 3 side chain; linkers in the order of their positions; H or OH if unused. Positions of bridges follow the written chain, without caps; N, C: chain ends. Non-standard residues stand in square brackets, D forms with d. Residues, ends and D or L forms follow the SMILES beside them. ξ: configuration not given here. *: point of attachment. Tetradecanoyl(3R-OH) = CCCCCCCCCCC[C@@H](O)CC(=O)*; Asp(3S-OH) = N[C@H](C(=O)O)[C@H](O)C(=O)O; Thr(4-Cl) = N[C@H](C(=O)O)[C@H](O)CCl; ξAsp(3ξ-OH) = NC(C(=O)O)C(O)C(=O)O; X3 = O=C(C(N[*:1])C(O)CCl)[*:2]; X1 = CCCCCCCCCCC(O)C(O)CC(=O)*; aThr = C[C@H](O)[C@H](N)C(=O)O; X2 = C/C=C(/N[*:1])C(=O)[*:2]; dDab = NCC[C@@H](N)C(=O)O; Dab = NCC[CH](N)C(=O)O; Dhb = C/C=C(\N)C(=O)O

Columns and labels:
[1] = test system: fungi, including important fungal pathogens in both humans and plants; details: isolated pseudomycins; spectrum of fungi; cited from earlier work
[2] = Toxicity of pseudomycins (general statement); details: no species or dose given
[3] = test system: fungi, including important fungal pathogens in both humans and plants; experiment: Antifungal activity of isolated pseudomycins (general statements, literature); type: cell-based; details: comparison with pseudomycins A, C, certain fungi

Row | Structure (SMILES) | antifungal activity [1] | toxicity [2] | potency against fungi compared to the other preferred pseudomycins [3]
1 | C/C=C1\NC(=O)[C@H]([C@H](C)O)NC(=O)[C@H](CCN)NC(=O)[C@H](CCCCN)NC(=O)[C@H](CC(=O)O)NC(=O)[C@@H](CCN)NC(=O)[C@@H](NC(=O)C[C@H](O)CCCCCCCCCCC)COC(=O)[C@H]([C@H](O)CCl)NC(=O)[C@H]([C@H](O)C(=O)O)NC1=O [Pseudomycin B] ({Tetradecanoyl(3R-OH)}-S[dDab]DK[Dab][aThr][Dhb][Asp(3S-OH)][Thr(4-Cl)]; ester 1-C) | activity against a wide variety of fungi; also recorded: wide spectrum antifungal activity | generally acceptable toxicity; also recorded: lower level of toxicity | greater potency against certain fungi
2 | C/C=C1/NC(=O)C(C(C)O)NC(=O)C(CCN)NC(=O)C(CCCCN)NC(=O)C(CC(=O)O)NC(=O)C(CCN)NC(=O)C(NC(=O)CC(O)C(O)CCCCCCCCCC)COC(=O)C(C(O)CCl)NC(=O)C(C(O)C(=O)O)NC1=O (centres unmarked) [Pseudomycin A] (X1-S[Dab]DK[Dab]T[X2][ξAsp(3ξ-OH)][X3]; ester 1-C; configuration not given here) | activity against a wide variety of fungi; also recorded: wide spectrum antifungal activity | generally acceptable toxicity | 
